According to ChEMBL document CHEMBL3994570, “Euphorbia dendroides Latex as a Source of Jatrophane Esters: Isolation, Structural Analysis, Conformational Study, and Anti-CHIKV Activity” (J Nat Prod, 2016):
Activity calls are given as the source filed them. No cut-off for these calls is given here.

Assays:
Chikungunya virus = assay: Antiviral activity against Chikungunya virus 899 infected in African green monkey Vero cells assessed as inhibition of virus-induced cytopathic effect after 6 to 7 days by MTS assay; format: functional; conditions: for EC50: Chikungunya virus, 899, Vero
[1] = (§1) Cytotoxicity against African green monkey Vero cells assessed as reduction in metabolic activity by MTS assay; format: ADME, cell-based; conditions: chlorocebus sabaeus, Vero cells
[2] = Selectivity index, ratio of CC50 for African green monkey Vero cells to EC50 for Chikungunya virus 899 infected in African green monkey Vero cells; format: toxicity; conditions: read-out: Ratio CC50/EC50
Vero = assay: as §1; format: ADME, cell-based; conditions: chlorocebus sabaeus, vero

| SMILES | inhibition (Chikungunya virus) | further results |
| --- | --- | --- |
| C=C1[C@H](OC(=O)c2ccccc2)[C@@H](OC(C)=O)[C@@H](OC(C)=O)C(C)(C)/C=C/[C@H](C)C(=O)[C@@]2(O)C[C@@](C)(OC(C)=O)[C@H](OC(=O)C(C)C)[C@@H]2[C@H]1OC(=O)C(C)C | inactive |  |
| C=C1[C@H](OC(=O)C(C)C)[C@@H](OC(C)=O)[C@@H](OC(C)=O)C(C)(C)/C=C/[C@H](C)C(=O)[C@@]2(O)C[C@@](C)(OC(C)=O)[C@H](OC(=O)COC(=O)c3ccccc3)[C@@H]2[C@H]1OC(C)=O |  | EC50 (Chikungunya virus): 5.5 µM; CC50 [1]: 17.7 µM; selectivity ratio [2]: 3.2 |
| C=C1[C@H](OC(=O)C(C)C)[C@@H](OC(C)=O)[C@@H](OC(C)=O)C(C)(C)/C=C/[C@H](C)C(=O)[C@@]2(O)C[C@@](C)(OC(C)=O)[C@H](OC(=O)c3ccccc3)[C@@H]2[C@H]1OC(=O)C(C)C | inactive |  |
| CC(=O)O[C@H]1[C@@H](OC(C)=O)C(C)(C)/C=C/[C@H](C)C(=O)[C@@]2(OC(C)=O)C[C@@](C)(OC(C)=O)[C@H](O)[C@@H]2[C@H]2OC(=O)CC[C@@]2(OC(C)=O)[C@@H]1OC(=O)C(C)C | inactive |  |
| C=C1[C@H](C(=O)C(C)C)[C@H]2[C@@H](OC(C)=O)[C@@H](C)C[C@]2(O)C(=O)[C@@H](C)/C=C/C(C)(C)[C@H](OC(C)=O)[C@H](OC(C)=O)[C@H]1OC(=O)c1ccccc1 | inactive |  |
| CC(=O)O[C@H]1[C@@H](OC(C)=O)C(C)(C)/C=C/[C@@](C)(O)C(=O)[C@@]2(O)C[C@@](C)(OC(C)=O)[C@H](OC(C)=O)[C@@H]2[C@H]2OC(=O)CC[C@@]2(OC(C)=O)[C@@H]1OC(=O)C(C)C | inactive |  |
| C=C1[C@H](OC(=O)c2ccccc2)[C@@H](OC(C)=O)[C@@H](OC(C)=O)C(C)(C)/C=C/[C@H](C)C(=O)[C@@]2(O)C[C@@](C)(OC(C)=O)[C@H](O)[C@@H]2[C@H]1OC(=O)C(C)C | inactive |  |
| C=C1[C@H](OC(=O)c2ccccc2)[C@@H](OC(C)=O)[C@@H](OC(C)=O)C(C)(C)/C=C/[C@H](C)C(=O)[C@@]2(O)C[C@@](C)(OC(C)=O)[C@H](O)[C@@H]2[C@H]1OC(=O)c1ccccc1 | inactive | Activity (Vero): Non-Toxic |
| C=C1[C@H](C(=O)C(C)C)[C@H]2[C@@H](OC(C)=O)[C@](C)(O)C[C@]2(O)C(=O)[C@@H](C)/C=C/C(C)(C)[C@H](OC(C)=O)[C@H](OC(C)=O)[C@H]1OC(=O)c1ccccc1 | inactive |  |
| C=C1[C@H](OC(=O)c2ccccc2)[C@@H](O)[C@@H](OC(C)=O)C(C)(C)/C=C/[C@H](C)C(=O)[C@@]2(O)C[C@@](C)(OC(C)=O)[C@H](O)[C@@H]2[C@H]1OC(=O)c1ccccc1 | inactive | Activity (Vero): Non-Toxic |
| CC(=O)O[C@H]1[C@@H](OC(C)=O)C(C)(C)/C=C/[C@H](C)C(=O)[C@@]2(O)C[C@@](C)(OC(C)=O)[C@H](OC(C)=O)[C@@H]2[C@H]2OC(=O)CC[C@@]2(OC(=O)C(C)C)[C@@H]1OC(=O)C(C)C |  | EC50 (Chikungunya virus): 15 µM; CC50 [1]: 36 µM; selectivity ratio [2]: 2.4 |
| C=C1[C@H](OC(=O)c2ccccc2)[C@@H](OC(C)=O)[C@@H](OC(C)=O)C(C)(C)/C=C/[C@H](C)C(=O)[C@@]2(O)C[C@@](C)(OC(C)=O)[C@H](O)[C@@H]2[C@H]1OC(=O)C(C)CC (some centres not stated) | inactive | Activity (Vero): Non-Toxic |
| C=C1[C@H](O)[C@H]2[C@@H](OC(=O)c3ccccc3)[C@](C)(O)C[C@]2(O)C(=O)[C@@H](C)/C=C/C(C)(C)[C@H](OC(C)=O)[C@H](OC(C)=O)[C@H]1OC(=O)c1ccccc1 | inactive |  |
| C=C1[C@H](OC(=O)c2ccccc2)[C@@H](OC(C)=O)[C@@H](OC(C)=O)C(C)(C)/C=C/[C@H](C)C(=O)[C@@]2(O)C[C@@](C)(OC(C)=O)[C@H](OC(C)=O)[C@@H]2[C@H]1OC(=O)C(C)C | inactive |  |
| CC(=O)O[C@H]1[C@@H](OC(C)=O)C(C)(C)/C=C/[C@@](C)(O)C(=O)[C@@]2(OC(C)=O)C[C@@](C)(OC(C)=O)[C@H](OC(C)=O)[C@@H]2[C@H]2OC(=O)CC[C@@]2(OC(C)=O)[C@@H]1OC(=O)C(C)C | inactive |  |
